The record followed here is the NIST ThermoML archive (doi:10.1021/je100028s).

As usually defined, the mass density is mass per unit of volume. A word on the vapor or sublimation pressure: it is the equilibrium pressure above the liquid or solid.

The conditions of this data set: Liquid; for mass density: 293.1 K, 101.33 kPa, Pycnometric method; for vapor or sublimation pressure: Closed cell (Static) method.

Each structure is given as a SMILES string. Numbers after ± are expanded uncertainties.

For `C1CCCCC1` [cyclohexane], the mass density came to 778.2 ± 0.7 kg/m3. In addition, under “414 K”, the “vapor or sublimation pressure” value is given as 457.67 ± 21 kPa. The “vapor or sublimation pressure” value (423.4 K) is on record as 555.25 ± 21 kPa. In addition, the “vapor or sublimation pressure” value (433.7 K) was 677.81 ± 21 kPa.
For `OC1CCCCC1` [cyclohexanol], the mass density was determined as 941.4 ± 0.9 kg/m3.
Consider `O=C1CCCCC1` [cyclohexanone], for which the mass density amounted to 947.6 ± 0.9 kg/m3.
